# In paper PMC9490041, “Determinants of affinity, specificity, and phase separation in a supramodule from Post-synaptic density protein 95” (iScience, 2022):
# Read-outs that look alike come from different tables or passages of the source. Ends that are not written are not given here.
# What was measured:
# Experiment in all cases: FP displacement (competition) of FITC-15 AA CRIPT by library peptide, IC50 and Ki
# PSG G322A (PSD-95) = settings: for IC50: read-out: IC50 (µM), PSG G322A; for Ki: read-out: Ki (µM), PSG G322A
# PSG G335A (PSD-95) = settings: for IC50: read-out: IC50 (µM), PSG G335A; for Ki: read-out: Ki (µM), PSG G335A
# PSG G322A G335A (PSD-95) = settings: for IC50: read-out: IC50 (µM), PSG G322A G335A
# [1] = FP displacement of FITC-15 AA CRIPT probe by acetylated PSD library peptide
# [2] = FP displacement of FITC-15 AA CRIPT probe by acetylated PSD library peptide (P-13 to P0 plus extra N-terminal Y)
# [3] = FP displacement of FITC-15 AA CRIPT probe by PSD library peptide, protein PSG G322A
# [4] = read-out: Ki (µM), PSG G322A G335A, FP displacement of FITC-15 AA CRIPT probe by acetylated PSD library peptide
# [5] = FP displacement of FITC-15 AA CRIPT probe by PSD library peptide, protein PSG G335A
# [6] = FP displacement of FITC-15 AA CRIPT probe by PSD library peptide, protein PSG G322A G335A
# [7] = read-out: Ki (µM), PSG G322A G335A, FP displacement of FITC-15 AA CRIPT probe by PSD library peptide, protein PSG G322A G335A
Compound,IC50 (PSG G322A (PSD-95); [1]) [µM],Ki (PSG G322A (PSD-95); [1]) [µM],IC50 (PSG G335A (PSD-95); [1]) [µM],Ki (PSG G335A (PSD-95); [1]) [µM],IC50 (PSG G322A G335A (PSD-95); [2]) [µM],Ki (PSG G322A G335A (PSD-95); [4]) [µM],Ki (PSG G322A G335A (PSD-95); [7]) [µM],other results
CC[C@H](C)[C@H](NC(=O)[C@H](CC(=O)O)NC(=O)[C@H](CCC(N)=O)NC(=O)CNC(=O)[C@@H](NC(=O)[C@H](CC(C)C)NC(=O)[C@@H]1CCCN1C(=O)[C@H](Cc1ccc(O)cc1)NC(C)=O)C(C)C)C(=O)N[C@H](C(=O)N[C@@H](CC(=O)O)C(=O)N[C@@H](CC(C)C)C(=O)N[C@@H](CCC(N)=O)C(=O)N[C@H](C(=O)N[C@@H](CCC(=O)O)C(=O)N[C@H](C(=O)O)C(C)C)[C@@H](C)O)[C@@H](C)CC [ADGRB1],258,112,245,87,112,–,–,"Ki (PSG G322A G335A (PSD-95); FP displacement of 5 nM FITC-15 AA CRIPT by non-labeled acetylated peptide, room temperature, Ki from IC50, PSG G322A G335A): 39 µM"
CC[C@H](C)[C@H](NC(=O)[C@H](CCCNC(=N)N)NC(=O)[C@H](CCCNC(=N)N)NC(=O)[C@H](CCC(N)=O)NC(=O)[C@H](CC(N)=O)NC(=O)[C@H](CC(C)C)NC(=O)CNC(=O)[C@H](CO)NC(=O)[C@H](Cc1ccc(O)cc1)NC(=O)[C@H](CC(C)C)NC(=O)[C@H](CC(=O)O)NC(=O)[C@H](CCCNC(=N)N)NC(=O)[C@H](CCC(N)=O)NC(=O)CNC(=O)[C@H](Cc1ccc(O)cc1)NC(C)=O)C(=O)O [CD3E],–,–,–,–,–,–,–,IC50 (PSG G322A (PSD-95); [3]): 757 µM; Ki (PSG G322A (PSD-95); [3]): 328 µM
CSCC[C@H](NC(=O)[C@H](CC(N)=O)NC(=O)[C@H](CCCCN)NC(=O)[C@H](CC(C)C)NC(=O)[C@@H](NC(=O)[C@H](CC(=O)O)NC(=O)[C@H](Cc1ccc(O)cc1)NC(C)=O)C(C)C)C(=O)N[C@H](C(=O)N[C@@H](CC(=O)O)C(=O)N[C@@H](CCCCN)C(=O)N[C@@H](C)C(=O)N1CCC[C@H]1C(=O)N1CCC[C@H]1C(=O)NCC(=O)N[C@H](C(=O)O)C(C)C)[C@@H](C)O [CK2N1],824,357,–,–,940,325,–,–
CC(=O)N[C@@H](Cc1ccc(O)cc1)C(=O)N[C@@H](Cc1ccc(O)cc1)C(=O)N[C@@H](CCC(=O)O)C(=O)N[C@H](C(=O)N[C@@H](CO)C(=O)N[C@@H](Cc1c[nH]cn1)C(=O)N[C@@H](Cc1ccc(O)cc1)C(=O)N1CCC[C@H]1C(=O)N[C@@H](C)C(=O)N[C@@H](CO)C(=O)N1CCC[C@H]1C(=O)N[C@@H](CC(=O)O)C(=O)N[C@@H](CO)C(=O)N[C@@H](Cc1c[nH]c2ccccc12)C(=O)N[C@H](C(=O)O)C(C)C)[C@@H](C)O [CTND2],–,–,–,–,–,–,161,IC50 (PSG G322A (PSD-95); [3]): 694 µM; Ki (PSG G322A (PSD-95); [3]): 301 µM; IC50 (PSG G335A (PSD-95); [5]): 1020 µM; Ki (PSG G335A (PSD-95); [5]): 364 µM; IC50 (PSG G322A G335A (PSD-95); [6]): 465 µM
CC(=O)N[C@@H](Cc1ccc(O)cc1)C(=O)N[C@@H](Cc1ccccc1)C(=O)N[C@H](C(=O)N[C@@H](Cc1ccc(O)cc1)C(=O)N[C@@H](Cc1c[nH]cn1)C(=O)N[C@H](C(=O)N[C@@H](CO)C(=O)N[C@@H](CC(=O)O)C(=O)NCC(=O)N[C@@H](CC(=O)O)C(=O)N[C@@H](C)C(=O)N[C@@H](CC(C)C)C(=O)N[C@@H](CC(C)C)C(=O)N[C@@H](CC(C)C)C(=O)N[C@@H](CC(C)C)C(=O)O)[C@@H](C)O)[C@@H](C)O [CX3C1],–,–,–,–,–,–,256,IC50 (PSG G322A G335A (PSD-95); [6]): 740 µM
CC[C@H](C)[C@H](NC(=O)[C@H](CO)NC(=O)[C@@H](NC(=O)[C@@H](NC(=O)[C@@H]1CCCN1C(=O)[C@H](CC(C)C)NC(=O)[C@H](C)NC(=O)[C@@H]1CCCN1C(=O)[C@H](Cc1ccc(O)cc1)NC(C)=O)[C@@H](C)O)C(C)C)C(=O)N[C@@H](CO)C(=O)N[C@@H](CO)C(=O)N[C@@H](CO)C(=O)N[C@@H](C)C(=O)N[C@@H](CCC(=O)O)C(=O)N[C@H](C(=O)O)C(C)C [DOC10],1460,634,2010,718,2020,698,–,–
CC(=O)N[C@@H](Cc1ccc(O)cc1)C(=O)N[C@@H](CC(C)C)C(=O)N[C@@H](Cc1c[nH]cn1)C(=O)NCC(=O)N[C@@H](Cc1c[nH]cn1)C(=O)N[C@@H](CCCNC(=N)N)C(=O)N[C@@H](Cc1ccc(O)cc1)C(=O)N[C@@H](CO)C(=O)N[C@@H](CO)C(=O)NCC(=O)N[C@@H](CO)C(=O)N[C@@H](CCCNC(=N)N)C(=O)N[C@@H](CO)C(=O)N[C@@H](CC(C)C)C(=O)N[C@H](C(=O)O)C(C)C [IQEC3],660,286,673,240,570,197,–,–
CC[C@H](C)[C@H](NC(=O)[C@H](CCC(=O)O)NC(=O)[C@@H](NC(=O)[C@H](C)NC(=O)[C@@H](NC(=O)[C@@H](NC(=O)[C@H](CC(=O)O)NC(=O)[C@H](CCC(=O)O)NC(=O)[C@H](Cc1ccc(O)cc1)NC(=O)[C@@H]1CCCN1C(=O)[C@@H](NC(=O)[C@H](CC(=O)O)NC(=O)[C@H](C)NC(=O)CNC(=O)[C@H](Cc1ccc(O)cc1)NC(C)=O)[C@@H](C)CC)[C@@H](C)CC)[C@@H](C)CC)[C@@H](C)O)C(=O)O [LZTS1],–,–,–,–,–,–,388,IC50 (PSG G335A (PSD-95); [5]): 648 µM; Ki (PSG G335A (PSD-95); [5]): 231 µM; IC50 (PSG G322A G335A (PSD-95); [6]): 1120 µM
CC(=O)N[C@@H](Cc1ccc(O)cc1)C(=O)N[C@@H](CC(=O)O)C(=O)N[C@@H](CCCCN)C(=O)N[C@@H](CCCNC(=N)N)C(=O)N[C@@H](CC(=O)O)C(=O)N[C@@H](CO)C(=O)N[C@@H](CCC(=O)O)C(=O)N[C@@H](CCC(=O)O)C(=O)N[C@@H](CCC(=O)O)C(=O)N[C@@H](CO)C(=O)N[C@@H](CCC(=O)O)C(=O)N[C@@H](CO)C(=O)N[C@H](C(=O)N[C@@H](C)C(=O)N[C@@H](CC(C)C)C(=O)O)[C@@H](C)O [RHG44],–,–,–,–,–,–,327,IC50 (PSG G322A (PSD-95); [3]): 1210 µM; Ki (PSG G322A (PSD-95); [3]): 526 µM; IC50 (PSG G322A G335A (PSD-95); [6]): 944 µM
CC[C@H](C)[C@H](NC(=O)[C@H](Cc1ccccc1)NC(=O)[C@H](Cc1ccc(O)cc1)NC(=O)[C@@H]1CCCN1C(=O)[C@H](CCC(N)=O)NC(=O)[C@H](Cc1ccc(O)cc1)NC(C)=O)C(=O)N[C@H](C(=O)N[C@@H](CC(N)=O)C(=O)N[C@@H](CO)C(=O)N[C@@H](CCCCN)C(=O)N[C@H](C(=O)N[C@@H](CCC(=O)O)C(=O)N[C@H](C(=O)N[C@H](C(=O)N[C@H](C(=O)O)C(C)C)[C@@H](C)O)C(C)C)[C@@H](C)O)[C@@H](C)O [SHSA9],756,328,1130,404,994,344,–,–
CC(=O)N[C@@H](Cc1ccc(O)cc1)C(=O)N[C@H](C(=O)N[C@@H](CCC(=O)O)C(=O)N[C@@H](CO)C(=O)N[C@@H](CC(C)C)C(=O)N[C@@H](CO)C(=O)N[C@@H](CO)C(=O)N[C@@H](CCC(=O)O)C(=O)N[C@@H](CO)C(=O)N[C@H](C(=O)N[C@@H](C)C(=O)N[C@H](C(=O)N[C@@H](CO)C(=O)N1CCC[C@H]1C(=O)N[C@H](C(=O)O)C(C)C)[C@@H](C)O)[C@@H](C)O)C(C)C [TNR16],867,376,–,–,880,304,–,–
CC(=O)N[C@@H](Cc1ccc(O)cc1)C(=O)N[C@@H](C)C(=O)N1CCC[C@H]1C(=O)N[C@@H](C)C(=O)N[C@H](C(=O)N[C@@H](CO)C(=O)N1CCC[C@H]1C(=O)N1CCC[C@H]1C(=O)N[C@@H](CCC(=O)O)C(=O)N[C@@H](CCCNC(=N)N)C(=O)N[C@@H](C)C(=O)N[C@@H](CC(C)C)C(=O)N[C@@H](CO)C(=O)N[C@@H](CCCCN)C(=O)N[C@@H](CC(C)C)C(=O)O)[C@@H](C)O [TUTLB],1730,752,721,257,1810,625,–,–
Ac-YDVVAVYPNAKVELV [PDLI4],651,282,1510,538,881,305,–,–
Ac-YERAANREEALEWEF [CUX2],–,–,–,–,–,–,351,IC50 (PSG G322A (PSD-95); [3]): 701 µM; Ki (PSG G322A (PSD-95); [3]): 304 µM
Ac-YQETLFVGNDQVSEI [TM108],–,–,–,–,1070,370,–,–
Ac-YVMQDESFPASKIEL [MAP1B],–,–,–,–,–,–,–,IC50 (PSG G322A (PSD-95); [3]): 914 µM; Ki (PSG G322A (PSD-95); [3]): 396 µM
Ac-YYETGSLSFAGDERI [SEZ6],–,–,–,–,–,–,590,IC50 (PSG G322A G335A (PSD-95); [6]): 1700 µM
